Measurements reported in patent US20110224311A1, “Natural Product Sweetness Enhancers” (priority 2009, published 2011).
“And” between values parts separate entries of the source, which are not always exact repeats. Equal entries are not always repeated. “Also recorded” adds a separate entry of the source. Where two headings read alike, the source gives them in different places.

Columns and labels:
[1] = cited from earlier work
[2] = cited from earlier work; remark: listed apart in the source
10 panelists = assay: Quantitative taste profile by trained panelists (Example 11); type: in vivo, human
Procedure: The taste of 150, 300, and 600 μM Reb C was evaluated by a test group. 10 panelists were trained over a period of a few weeks to provide a quantitative flavor profile of Reb C. Panelists first were trained using standard tastants representing the different taste modalities given in FIG. 10 (i.e., sweet, bitter, salt, sour, and licorice). They then were trained to use the scales when flavors were mixed together. All intensity ratings are on scales ranging from 0 (no taste) to 8 (highest intensity). The intensity rating for sweet is essentially the same as used in Examples 1 and 6. The taste profiles were obtained for 150, 300, and 600 μM Reb C. Reb A (0.2 mg/ml, a concentration used in some food/beverage applications for sweetening) was also evaluated in the test for comparison. The scale is not linear at the bottom. A rating of 1 is around the threshold for sweetness detection.

[3] = system: trained judges (expert taste panel); assay: Double-blind sequential monadic sweetness intensity test, taste and swallow (Example 6 protocol), beverages and solutions; type: in vivo, human; settings: for intrinsic sweetness in unsweetened beverage: Reb C at 190 ppm or below (95, 190, 285 ppm tested)
[4] = system: trained judges (expert taste panel); assay: Double-blind sequential monadic sweetness intensity test, sip and spit (Example 1 protocol); type: in vivo, human
Description: Subjects were given three samples to evaluate. Each subject was directed to swirl the first sample in his or her mouth for 3-5 seconds, expectorate the entire sample into a discard cup, and then assess the sweetness intensity of the sample. The intensity was rated on a score card by marking a numerical value along a scale from 0 to 8 (e.g., 0=none, 2=slight, 4=definite, 8=very strong). Following the decision regarding the sweetness intensity, subjects were instructed to rinse their mouth with water and spit in the discard cup. Subjects then were given unsalted crackers to cleanse the palate. A period of 10 minutes elapsed between presentations of each sample to reduce the potential influence of residual taste effects. A second sample was then presented and evaluated as above and the same procedure was followed until all three products were evaluated. Sample presentation was randomized to avoid order of presentation bias. To participate in the sensory panel, judges or subjects were chosen from an expert taste panel. These subjects were screened for taste acuity and were trained in evaluating solutions using the sip and spit protocol and were trained in using a rating ballot. The number of judges who participated in the study was 20. The female subjects were all non-pregnant and all volunteers were of <55 years of age with no history of allergy to sucrose. Judges were asked to execute an informed consent form. Specifically, the following instructions were given to the judges: Please take a sip of water. Carefully take the cap off the sample cup placed in front of you. Sip, swirl for 3-5 seconds, and then spit the sample into the cup provided, then assess the intensity of the sweetness of the sample. Please evaluate the sample for the intensity of the sweet flavor and put a vertical mark on the number that best describes the intensity. Rinse your mouth with the water provided and spit into the discard cup. Use crackers provided to cleanse your palate before evaluating the next sample. If any other flavor was present in the sample please describe it. Please rinse your mouth again several times and have some more water and unsalted crackers. You will now have a rest period of 10 minutes before you will be given the next sample.

[5] = system: test group having five (5) subjects; assay: Forced-choice taste test of Reb C water solution against water; type: in vivo, human; settings: 250 μM Reb C water solution
Procedure: The taste of a 250 μM Reb C solution was evaluated by a test group having five (5) subjects as follows (Forced-choice): Subjects were presented with 2 cups, each containing 10 ml of either 250 μM Reb C water solution or water (room temperature). […] Subjects were asked to sip most or all of the 10 ml from the first cup, swish the liquid in their oral cavity, and expectorate into a cup, then rinse their mouths vigorously with water. Soon thereafter, the contents of the second cup were sampled in the same manner. Then, subjects were asked to choose the sweeter of the two samples, or if not sweet, to describe the qualitative taste profile of the sample having a detectable taste.

[6] = system: test group having four (4) subjects; assay: Open qualitative taste report of Reb C water solutions; type: in vivo, human; settings: 250 and 300 μM Reb C in water, subjects 1 to 4
Procedure: The taste of 250 μM and 300 μM Reb C solutions were evaluated as follows by another test group having four (4) subjects as follows: 10 ml solutions of 250 and 300 μM Reb C in water were sampled by four subjects who were asked to report their qualitative taste experience of the solutions. […] The subjects have the following qualitative taste descriptions: […]

[7] = 5% (w/v-%) fructose solution + 300 μM enhancer, versus 7% (w/v-%) fructose
[8] = 5% (w/v-%) sucrose solution + 300 μM enhancer, versus 7% (w/v-%) sucrose, scale 0 to 8
[9] = 8% (w/v-%) sucrose solution + 300 μM enhancer, versus 11% (w/v-%) sucrose

C=C1C[C@@]23CC[C@H]4[C@@](C)(CCC[C@@]4(C)C(=O)O[C@@H]4O[C@H](CO)[C@@H](O)[C@H](O)[C@H]4O)[C@@H]2CC[C@]1(O[C@@H]1O[C@H](CO)[C@@H](O)[C@H](O[C@@H]2O[C@H](CO)[C@@H](O)[C@H](O)[C@H]2O)[C@H]1O[C@@H]1O[C@H](CO)[C@@H](O)[C@H](O)[C@H]1O)C3 [rebaudioside A]
aftertaste among the diterpene glycosides of Stevia extracts ([1]; bitter and licorice-like aftertaste): least aftertaste
effect in mixtures with other sweeteners ([2]; mixture with sucrose, sweetness intensity equivalent to 7% (w/v-%) sucrose): additive effect
effect in mixtures with other sweeteners ([2]; mixtures with fructose and glucose, sweetness intensity equivalent to 3% (w/v-%) sucrose): additive effect
effect in mixtures with other sweeteners ([2]; mixtures with fructose, glucose and sucrose, sweetness intensity equivalent to 5% (w/v-%) sucrose): additive effect
effect in mixtures with other sweeteners ([2]; mixtures with glucose and fructose, sweetness intensity equivalent to 7% (w/v-%) sucrose): suppressive effect
effect in mixtures with other sweeteners ([2]; mixtures with sucrose, sweetness intensity equivalent to 3% (w/v-%) sucrose): synergistic effect

C=C1CC23CCC4C(C)(C(=O)OC5OC(CO)C(O)C(O)C5O)CCCC4(C)C2CCC1(OC1OC(CO)C(O)C(OC2OC(CO)C(O)C(O)C2O)C1OC1OC(C)C(O)C(O)C1O)C3 (stereo not drawn) [Reb C, rebaudioside C]
unpleasant tastes, bitter and licorice (10 panelists; 150, 300 and 600 μM Reb C alone): barely detected
intrinsic sweetness (10 panelists; 150, 300 and 600 μM Reb C, scale 0 to 8): little or no intrinsic sweetness
unpleasant tastes, bitter and licorice (10 panelists; Reb C combined with sugar): undetected
sweetness of sweetener solution with enhancer compared with higher sweetener concentration ([3]; 7.14% w/v erythritol water solution + 285 ppm (300 μM) Reb C, versus 7.14% and 10% erythritol): significantly sweeter than the 7.14% erythritol solution alone, but did not achieve the sweetness of a 10% erythritol solution; also recorded: acts synergistically
statistical significance of the sweetness enhancing effect ([3]; 8% (w/v-%) fructose solution + 300 μM Reb C): not statistically significant
sweetness of sweetener solution with enhancer compared with higher sweetener concentration ([3]; 8% (w/v-%) fructose solution + 300 μM Reb C, versus 8% and 11% fructose): between that of the 8% (w/v-%) fructose solution and that of an 11% (w/v-%) fructose solution
sweetness of beverage with enhancer compared with higher sweetener concentration ([3]; cola beverage buffered with citric acid, 10.39% (w/v-%) HFCS55 + 190 ppm Reb C, versus 14.29% HFCS55): significantly increases the sweetness intensity to that of 14.29% HFCS55; also recorded: synergistically enhanced
sweetness of beverage with enhancer compared with beverage alone ([3]; cola beverage buffered with phosphoric acid, 10.39% (w/v-%) HFCS55 + 190 ppm Reb C): is not higher than that of 10.39% (w/v-%) HFCS55 cola beverage alone
sweetness of beverage with enhancer compared with higher sweetener concentration ([3]; cola beverage buffered with phosphoric acid, 10.39% (w/v-%) HFCS55 + 310 ppm Reb C, versus 14.29% HFCS55): increased significantly the sweetness intensity of a cola beverage containing 10.39% (w/v-%) HFCS55, but did not reach the sweetness of a 14.29% (w/v-%) HFCS55 cola beverage; also recorded: enhances the sweetness intensity
sweetness of beverage with enhancer compared with higher sweetener concentration ([3]; iced tea, 8% (w/v-%) sucrose + 300 μM Reb C, versus 8% and 11% sucrose): between that of the 8% (w/v-%) solution and that of an 11% (w/v-%) sucrose solution; also recorded: enhances the sweetness intensity
sweetness of beverage with enhancer compared with higher sweetener concentration ([3]; iced tea, 10.39% (w/v-%) HFCS55 + 300 μM Reb C, versus 14.29% HFCS55): indistinguishable from that of a 14.29% (w/v-%) HFCS55 (HFCS) solution; also recorded: acts synergistically
sweetness of beverage with enhancer compared with higher sweetener concentration ([3]; lemon-lime soda (citric acid), 10.39% (w/v-%) HFCS55 + 190 ppm Reb C, versus 14.29% HFCS55): did not reach the sweetness of a 14.29% (w/v-%) HFCS55 solution; also recorded: synergistically enhanced
intrinsic sweetness in unsweetened beverage ([3]; unsweetened cola beverage): does not increase the sweetness of an unsweetened cola beverage
intrinsic sweetness in unsweetened beverage ([3]; unsweetened lemon-lime soda (FIG. 16)): does not increase the sweetness of an unsweetened cola beverage
sweetness of sweetener solution with enhancer compared with higher sweetener concentration [4, 7]: close to that of a 7% (w/v-%) fructose solution; also recorded: acts synergistically
sweetness of sweetener solution with enhancer compared with higher sweetener concentration [4, 8]: indistinguishable from that of a 7% (w/v-%) sucrose solution; also recorded: acts synergistically
sweetness of sweetener solution with enhancer compared with higher sweetener concentration ([4]; 8% (w/v-%) sucrose solution + 150 μM Reb C, versus 8% and 11% (w/v-%) sucrose): between that of the 8% (w/v-%) sucrose solution and that of an 11% (w/v-%) sucrose solution; also recorded: significantly enhanced
sweetness of sweetener solution with enhancer compared with higher sweetener concentration [4, 9]: close to that of an 11% (w/v-%) sucrose solution; also recorded: significantly enhanced
mean sweetness intensity score ([4]; 8% (w/v-%) sucrose solution with 150 μM Reb C, scale 0 to 8): 6.10
identification of the sample against water (forced-choice) ([5]; 10 ml, room temperature, five subjects): All subjects correctly identified the sample containing Reb C
qualitative taste description (one per subject) ([5]; subjects 1 to 5): Metallic, not sweet; also recorded: Aversive (“Nasty”); also recorded: Slight sweet, astringent; also recorded: Faintly sweet; also recorded: Slight sweet/licorice
qualitative taste description (one per subject) [6]: bitter and/or licorice

C=C1C[C@@]23CC[C@H]4[C@@](C)(CCC[C@@]4(C)C(=O)O[C@@H]4O[C@H](CO)[C@@H](O)[C@H](O)[C@H]4O)[C@@H]2CC[C@]1(O[C@@H]1O[C@H](CO)[C@@H](O)[C@H](O)[C@H]1O[C@@H]1O[C@@H](C)[C@H](O)[C@@H](O)[C@H]1O)C3 [Dulc A, dulcoside A]
sweetness of sweetener solution with enhancer compared with higher sweetener concentration [4, 7]: achieved that of a 7% (w/v-%) fructose solution; also recorded: acts synergistically
sweetness of sweetener solution with enhancer compared with higher sweetener concentration [4, 8]: achieved that of a 7% (w/v-%) sucrose solution; also recorded: acts synergistically
sweetness of sweetener solution with enhancer compared with higher sweetener concentration [4, 9]: approached that of an 11% (w/v-%) sucrose solution; also recorded: acts synergistically
off-tastes ([4]; 8% (w/v-%) sucrose solution with 300 μM Dulc A): No off-tastes were detected
mean sweetness intensity score ([4]; 8% (w/v-%) sucrose solution with 300 μM Dulc A, scale 0 to 8): 6.3
sweetness relative to sucrose ([1]; known values, background): 30 times sweeter than sucrose

OC[C@H]1O[C@@](CO)(O[C@H]2O[C@H](CO)[C@@H](O)[C@H](O)[C@H]2O)[C@@H](O)[C@@H]1O [sucrose, α-D-glucopyranosyl-(1→2)-β-D-fructofuranose, reference compound]
mean sweetness intensity score ([4]; 8% (w/v-%) sucrose solution alone (low-concentration comparator), scale 0 to 8): 5.30 and 5.0
mean sweetness intensity score ([4]; 11% (w/v-%) sucrose solution alone (high-concentration comparator), scale 0 to 8): 6.95 and 6.7
